Measurements reported in publication PMC4850295, “Using a Genetically Encoded Sensor to Identify Inhibitors of Toxoplasma gondii Ca^2+ Signaling” (The Journal of Biological Chemistry, 2016).
“And” between values parts separate entries of the source, which are not always exact repeats. Equal values may be shown once.

test system: T1, GCaMP5-expressing T. gondii; design: species or system GCaMP5-expressing Toxoplasma gondii, extracellular; GCaMP5 fluorescence (cytosolic Ca2+) after 100 uM zaprinast in compound-pretreated extracellular parasites, background-subtracted, relative to zaprinast alone; details: 100 uM zaprinast stimulation, 10 min pretreatment, mean of two replicates, 0.23 h, 10 µM
T1 construct: whole extracellular parasites expressing GCaMP5 Ca2+ sensor
Experimental: GCaMP5-expressing parasites were suspended in Ringer's solution at 4 × 10^7 parasites/ml, and 50 μl of parasites were applied to each well of a 96-well plate (Costar, catalog no. 3631). […] Parasites were then treated with 100 μM zaprinast or 0.1% DMSO as a vehicle control and incubated at 37 °C with 5% CO2 for an additional 4 min before measuring fluorescence with excitation and emission wavelengths of 485 and 525 nm, respectively, on a SpectraMax M3 (Molecular Devices). Basal fluorescence, measured from untreated parasites, was subtracted from all values, and results were expressed as -fold change from parasites treated only with zaprinast. Z′ factors were determined from (i) parasites treated with zaprinast versus untreated parasites and (ii) parasites treated with a final concentration of 1 μM Cpd2 or a vehicle control followed by zaprinast, using the formula, Z′ = 1 − 3(σp + σn)/(|μp − μn|), where σp and σn indicate S.D. values of positive and negative controls, and μp and μn indicate the means of positive and negative controls, respectively. […] We predicted that the zaprinast response measured in GCaMP5-expressing parasites could form the basis for a phenotypic screen. Such a screen would benefit from the known importance of Ca^2+ signaling in parasite biology along with the reported success rate of cell-based phenotypic assays. We designed a screen wherein extracellular GCaMP5-expressing parasites were pretreated with compounds for 10 min before stimulation with zaprinast, and parasite fluorescence was measured 4 min later. We expected that compounds that interfered with the zaprinast response would reduce fluorescence. We calculated a Z′-factor for this screen to determine its dynamic range and suitability to high throughput screening. To do so, we compared zaprinast-treated parasites to untreated parasites or those pretreated with the PKG inhibitor Compound 2 (Cpd2) ([55]). […] We obtained the compound libraries published kinase inhibitor sets PKIS1 ([57]) and PKIS2 (unpublished), from GlaxoSmithKline and applied our phenotypic screen to the 823 ATP mimetics represented in these collections (Fig. 2B and supplemental Table S1). The compounds were screened at a single 10 μM dose with two biological replicates.

Compound | fold change in fluorescence relative to zaprinast alone
Fc1ccc(-c2nc3n(c2-c2ccncc2)CCS3)cc1 [GI98581X] | 0.7657 and 1.237
CCn1c(-c2nonc2N)nc2c(-c3ccccc3)ncc(OCCCN)c21 [GSK260205A] | 0.1513

same assay, conditions: 100 uM zaprinast stimulation; 10 min pretreatment; mean of two replicates; 0.23 h

Compound | fold change in fluorescence relative to zaprinast alone
Nc1ncnc2c1ncn2-c1ccc(Cl)cc1 [AH2635] | 1.022
c1ccc(-c2cnc3nccnn23)cc1 [AH20685XX] | 1.296
COc1cc2ncnc(Nc3cccc(Br)c3)c2cc1OC [GI230329A] | 1.268
COc1ccc2ncnc(Nc3ccc(OCc4ccccc4)cc3)c2c1 [GI261520A] | 0.7394
COc1cc2ncnc(Nc3ccc(OCc4ccccc4Br)c(Cl)c3)c2cc1OC [GI261590A] | 1.09
COc1cc2nccc(Nc3ccc(Oc4ccccc4)cc3)c2cc1OC [GI261656A] | 0.5416
O=C1Nc2ccccc2C1=C1CCc2cc(O)ccc21 [GR105659X] | 1.22
c1ccc(Cc2nc3ccc(Nc4ncnc5ccccc45)cc3[nH]2)cc1 [GR269666A] | 1.257
Clc1cc(Cl)cc(Nc2ccnc(Nc3cc(Cl)cc(Cl)c3)n2)c1 [GSK175726A] | 0.5192
CC1=C(C(=O)Nc2ccc3[nH]ncc3c2)C(c2ccc(F)cc2)NC(=O)N1 (stereo not drawn) [GSK180736A] | 0.8811
CN(C)C(=O)O[C@H]1CN[C@H](C#Cc2cc3ncnc(Nc4ccc(OCc5cccc(F)c5)c(Cl)c4)c3s2)C1 [GSK182497A] | 1.183
Cc1ccc(-c2nc(Nc3ccncc3)c3ccccc3n2)s1 [GSK189015A] | 0.1154
CCNC(=O)O[C@H]1CN[C@H](C#Cc2cc3ncnc(Nc4ccc(OCc5cccc(F)c5)c(Cl)c4)c3s2)C1 [GSK192082A] | 1.213
O=C(Nc1cccc(-c2nn3ncccc3c2-c2ccnc(Nc3ccccc3)n2)c1)c1c(F)cccc1F [GSK198271A] | 1.278
O=C(O[C@H]1CN[C@H](C#Cc2cc3ncnc(Nc4ccc5c(cnn5Cc5ccccc5)c4)c3s2)C1)N1CCOCC1 [GSK200398A] | 1.169
COc1cc2ncn(-c3cc(OCC4CCCCC4)c(C(N)=O)s3)c2cc1OC [GSK204559A] | 1.336
COc1cc2ncn(-c3cc(OCCc4ccccc4)c(C(N)=O)s3)c2cc1OC [GSK204925A] | 0.9795
COc1cc2c(Nc3cccc(NC(=O)c4ccccc4)c3)ncnc2cc1OCCCN1CCOCC1 [GSK223810A] | 1.471
COc1cc2ncn(-c3cc(O[C@@H](C)c4ccccc4Cl)c(C(N)=O)s3)c2cc1OC [GSK237700A] | 1.147
COc1cc2ncn(-c3cc(O[C@H](C)c4ccccc4Cl)c(C(N)=O)s3)c2cc1OC [GSK237701A] | 0.7907
CN(C)C(=O)O[C@@H]1CN[C@@H](C#Cc2cc3ncnc(Nc4ccc(OCc5cccc(F)c5)c(Cl)c4)c3s2)C1 [GSK238063A] | 1.133
O=C(O[C@H]1CN[C@H](C#Cc2cc3ncnc(Nc4ccc(Cc5ccccc5)cc4)c3s2)C1)N1CCOCC1 [GSK238583A] | 1.249
Cc1cccc(-c2nc(C)cc(Nc3ccncc3)n2)n1 [GSK257997A] | 0.832

Compound | fold change in fluorescence relative to zaprinast alone
CCn1c(-c2nonc2N)nc2cnc(Oc3cccc(NC(=O)c4ccc(OCCN5CCOCC5)cc4)c3)cc21 [GSK269962B] | 1.303
CC1=C(C(=O)Nc2ccc3[nH]ncc3c2)C(c2ccc3ccccc3c2)CC(=O)N1 (stereo not drawn) [GSK270822A] | 1.167
O=C(Nc1cccc(-c2nn3ccccc3c2-c2ccnc(Nc3cccc(C(F)(F)F)c3)n2)c1)c1c(F)cccc1F [GSK292658A] | 1.154
CC1=C(C(=O)Nc2ccc3[nH]ncc3c2)C(c2ccc(Cl)c(Cl)c2)CC(=O)N1 (stereo not drawn) [GSK299115A] | 1.214
O=C(Nc1cccc(-c2nn3ncccc3c2-c2ccnc(Nc3cccc(C(F)(F)F)c3)n2)c1)c1c(F)cccc1F [GSK299495A] | 1.22
CS(=O)(=O)CCNCc1cc(-c2cc3c(Nc4ccc(OCc5cccc(F)c5)c(Cl)c4)ncnc3s2)cs1 [GSK300014A] | 1.033
NC(=O)c1cc(-c2ccccc2)cc2c(C3CCNCC3)c[nH]c12 [GSK301362A] | 1.06
O=S(=O)(c1cccc(F)c1)c1ccc(Nc2ncnc3cc(Br)sc23)cc1Cl [GSK306886A] | 1.114
O=C(Nc1cccc(-c2nn3ncccc3c2-c2ccnc(Nc3cccnc3)n2)c1)c1c(F)cccc1F [GSK312879A] | 1.048
COc1cc2ncn(-c3cc(OCc4cccs4)c(C(N)=O)s3)c2cc1OC [GSK312948A] | 1.205
COc1ccc2ncn(-c3cc(O[C@H](C)c4ccccc4C(F)(F)F)c(C(N)=O)s3)c2c1 [GSK317315A] | 0.7483
CC1=C(C(=O)Nc2ccc3[nH]ncc3c2)C(c2ccc(F)cc2)N=C(c2ccc(C(F)(F)F)nc2)N1 (stereo not drawn) [GSK317354A] | 1.324
COc1cc2ncn(-c3cc(OCc4ccccc4S(C)(=O)=O)c(C#N)s3)c2cc1OC [GSK319347A] | 1.184
COc1cc(Nc2nccc(-c3c(-c4cccc(NC(=O)c5c(F)cccc5F)c4)nn4ccccc34)n2)cc(OC)c1OC [GSK323521A] | 1.412
CS(=O)(=O)Cc1ccc(Nc2nccc(-c3c(-c4cccc(NC(=O)c5c(F)cccc5F)c4)nn4ccccc34)n2)cc1 [GSK323543A] | 1.565
CCS(=O)(=O)c1ccc(OC)c(Nc2nccc(-c3c(-c4cccc(NC(=O)c5c(F)cccc5F)c4)nn4ncccc34)n2)c1 [GSK326180A] | 1.656
COc1cc(Nc2nccc(-c3c(-c4cccc(NC(=O)c5c(F)cccc5F)c4)nn4ncccc34)n2)cc(OC)c1OC [GSK327238A] | 1.28
NS(=O)(=O)CCc1cccc(Nc2nccc(-c3c(-c4cccc(NC(=O)c5c(F)cccc5F)c4)nn4ccccc34)n2)c1 [GSK336735A] | 1.201
O=C(Nc1cccc(-c2nn3ccccc3c2-c2ccnc(Nc3cccc(F)c3)n2)c1)c1c(F)ccc(F)c1Cl [GSK357952A] | 1.061
Cc1ccc(F)c(C(=O)Nc2cccc(-c3nn4ccccc4c3-c3ccnc(Nc4cccc(F)c4)n3)c2)c1F [GSK361061A] | 0.9289
COc1cccc(OC)c1C(=O)Nc1cccc(-c2nn3ccccc3c2-c2ccnc(Nc3cccc(F)c3)n2)c1 [GSK361065A] | 0.9782
COc1ccccc1CNC(=O)c1cc(C(=O)c2ccccc2C)c[nH]1 [GSK364507A] | 1.353
NS(=O)(=O)c1cccc(N=Cc2c(O)[nH]c3ccc(S(=O)(=O)Cc4c(Cl)cccc4Cl)cc23)c1 [GSK398099A] | 1.056
